Assay results as given in PubChem BioAssay (NCI).
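Tested at 5 concentrations; 48 h exposure; 96-well plates; endpoints linearly interpolated, else capped at highest concentration. TGI: total growth inhibition.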

How the values were obtained:
Experiment in all cases: growth of human tumour cells (NCI), 48 h
HOP-62 NSCLC = system: HOP-62 NSCLC
HT29 colon = system: HT29 colon
LOX IMVI melanoma = system: LOX IMVI melanoma
NCI-H23 lung = system: NCI-H23 lung
OVCAR-4 ovarian = system: OVCAR-4 ovarian
SF-539 CNS = system: SF-539 CNS
SK-MEL-2 melanoma = system: SK-MEL-2 melanoma
SNB-19 CNS = system: SNB-19 CNS
SW-620 colon = system: SW-620 colon
UACC-257 melanoma = system: UACC-257 melanoma

Structure (SMILES)	TGI (HOP-62 NSCLC)	TGI (HT29 colon)	TGI (LOX IMVI melanoma)	TGI (NCI-H23 lung)	TGI (OVCAR-4 ovarian)	TGI (SF-539 CNS)	TGI (SK-MEL-2 melanoma)	TGI (SNB-19 CNS)	TGI (SW-620 colon)	TGI (UACC-257 melanoma)
CC1=NN(C(=O)CSc2nc3ccc(I)cc3c(=O)n2Cc2ccccc2)C(=O)C1	> 100 µM	> 100 µM	> 100 µM	43.1 µM	87.8 µM	> 100 µM	41 µM	> 100 µM	> 100 µM	85.4 µM
Cc1cc(O)c(C(C)C)cc1C1(c2cc(C(C)C)c(O)cc2C)OC(=O)c2ccccc21	8.75 µM	5.84 µM	3.53 µM	5.13 µM	5.26 µM	3.72 µM	3.28 µM	> 35.1 µM	4.57 µM	3.6 µM
CC(C)(C)c1cc(C2COC(c3cc(C(C)(C)C)c(O)c(C(C)(C)C)c3)CO2)cc(C(C)(C)C)c1O (stereo not given)	> 100 µM	> 100 µM	> 100 µM	> 100 µM	> 100 µM	> 100 µM	> 100 µM	> 100 µM	> 100 µM	> 100 µM
Cc1ccc(CC(C)N)cc1 (stereo not given)	> 100 µM	> 100 µM	> 100 µM	> 100 µM	> 100 µM	> 100 µM	> 100 µM	> 100 µM	> 100 µM	> 100 µM
CCC(c1c[nH]c2ccc(Br)cc12)c1c[nH]c2ccc(Br)cc12	22.3 µM	10.4 µM	6.66 µM	11 µM	8.11 µM	28.6 µM	23.1 µM	21.4 µM	19.1 µM	23.9 µM
c1ccc(CSCCc2ccncc2)cc1	> 100 µM	> 100 µM	> 100 µM	> 100 µM	> 100 µM	> 100 µM	> 100 µM	> 100 µM	> 100 µM	> 100 µM
O=c1onc2c3ccccc3ncn12	> 100 µM	> 100 µM	> 100 µM	> 100 µM	> 100 µM	> 100 µM	> 100 µM	> 100 µM	> 100 µM	> 100 µM
Cc1cc(NCCCCCCCNc2cc(C)nc3cc([N+](=O)[O-])ccc23)c2ccc([N+](=O)[O-])cc2n1	42 µM	8.43 µM	5.69 µM	> 24.9 µM	4.31 µM	39.5 µM	98.3 µM	39.5 µM	4.61 µM	36.9 µM
Cc1n[nH]c(=O)n1/N=C/c1ccc([N+](=O)[O-])o1	> 64.4 µM	30.1 µM	27.1 µM	32.4 µM	32.3 µM	37.1 µM	> 53.8 µM	> 100 µM	37.8 µM	27.7 µM
CC(=O)OCC1OC(n2c(=O)[nH]c(=O)c3sccc32)C(Br)C1OC(C)=O (stereo not given)	> 100 µM	> 100 µM	> 100 µM	> 100 µM	> 100 µM	> 100 µM	> 100 µM	> 100 µM	> 100 µM	> 100 µM
CSCCC(NC(=O)Cc1ccc(C(=O)c2ccccc2)cc1)C(=O)O (stereo not given)	> 100 µM	> 100 µM	> 100 µM	> 100 µM	> 100 µM	> 100 µM	> 100 µM	> 100 µM	> 100 µM	> 100 µM
O=C(Nc1cccc(F)c1)c1cc2ccc(O)cc2oc1=Nc1ccccc1F	24.6 µM	51.5 µM	7.15 µM	5.86 µM	26.8 µM	27 µM	18.7 µM	21 µM	45.4 µM	31.1 µM
COc1ccc(C(=O)c2[nH]c(Nc3ccc(Cl)cc3)c(C(=S)Nc3ccccc3)c2N)cc1	> 100 µM	> 100 µM	> 100 µM	> 100 µM	93.6 µM	> 100 µM	> 100 µM	> 100 µM	> 100 µM	> 100 µM
Nc1ccc(C(=O)NN2C(=O)C(Cl)C2c2ccccc2)cc1 (stereo not given)	> 100 µM	> 100 µM	> 100 µM	> 100 µM	> 100 µM	> 100 µM	> 100 µM	> 100 µM	> 100 µM	> 100 µM
Cc1ccc(/C=C2\CCCC(CN3CCCCC3)C2=O)cc1 (stereo not given)	35.4 µM	3.28 µM	3.29 µM	4.86 µM	3.62 µM	15.6 µM	9.91 µM	29.6 µM	3.14 µM	4.02 µM
CCOc1cc(NC(C)=O)ccc1C(=O)NN1C(=O)C(Cl)C1c1ccco1 (stereo not given)	35.7 µM	38.8 µM	13.1 µM	39 µM	33.3 µM	38 µM	37.3 µM	32.1 µM	> 100 µM	34.2 µM
OC(c1ccc(-c2ccccc2)cc1)C(F)(F)c1nc2ccccc2o1 (stereo not given)	> 73.6 µM	> 100 µM	> 100 µM	> 100 µM	50.4 µM	> 72.3 µM	> 100 µM	> 100 µM	> 100 µM	> 100 µM
CCC[C@H](C)C[C@H](C)C[C@H](C)/C=C(\C)[C@@H](O)[C@@H](C)C(=O)CC	35.2 µM	37 µM	37.8 µM	33.3 µM	36.8 µM	37 µM	44.7 µM	36.1 µM	43 µM	38.9 µM
CNc1ccc(N)cc1C(=O)N1CCC[C@H]1CO	> 100 µM	> 100 µM	> 100 µM	> 100 µM	> 100 µM	> 100 µM	> 100 µM	> 100 µM	> 100 µM	> 100 µM
FC(F)(F)c1ccc2nc(Sc3ccccn3)cnc2c1	> 100 µM	> 100 µM	> 100 µM	78.8 µM	> 100 µM	35.9 µM	31.1 µM	86.8 µM	> 100 µM	> 100 µM
Nc1ccc(CCN2CCN(CCCc3ccccc3)CC2)cc1	> 100 µM	> 100 µM	> 100 µM	> 100 µM	> 100 µM	> 100 µM	> 100 µM	> 100 µM	> 100 µM	> 100 µM
C[C@H]1C=C2[C@@H]3CC(C)(C(=O)O)CC[C@]3(C)CC[C@]2(C)[C@]2(C)CC[C@H]3C(C)(C)[C@@H](OC(=O)c4cccc5c(=O)c6ccccc6[nH]c45)CC[C@]3(C)[C@@H]12 (stereo not given in full)	> 100 µM	> 100 µM	> 100 µM	> 100 µM	> 100 µM	> 100 µM	> 100 µM	> 100 µM	> 100 µM	> 100 µM
CCOc1ccc(-n2nnc3c(N)nc(N)nc32)cc1	> 100 µM	> 100 µM	> 100 µM	> 100 µM	> 100 µM	> 100 µM	> 100 µM	> 100 µM	> 100 µM	> 100 µM
N#C/C(=C\c1c[nH]c2ccccc12)C(=O)c1ccc(O)c(O)c1	> 61.5 µM	> 70.8 µM	> 100 µM	> 100 µM	> 100 µM	> 83.7 µM	> 80.3 µM	98.1 µM	> 100 µM	> 100 µM
CCOC(=O)CSc1nnc(C(Sc2nc(-c3ccccc3)c(-c3ccccc3)[nH]2)C(C)C)n1-c1ccccc1 (stereo not given)	> 10 µM	19.4 µM	19.9 µM	> 10 µM	28.5 µM	18.8 µM	22.9 µM	> 31.6 µM	> 31.6 µM	19.3 µM
CC1OC(OC2C(OC(=O)[C@@H]3CC(C)(C)C[C@H]4C5=CC[C@@H]6[C@@]7(C)C[C@H](O)[C@H](OC8OC(CO)C(O)C(O)C8O)[C@@](C)(CO)[C@@H]7[C@H](O)C[C@@]6(C)[C@]5(C)CC[C@@]34C)OCC(O)C2O)C(O)C(O)C1O (stereo not given in full)	> 7.5 µM	> 7.5 µM	> 7.5 µM	> 7.5 µM	> 7.5 µM	> 7.5 µM	> 7.5 µM	> 7.5 µM	> 7.5 µM	> 7.5 µM
COC(=O)C1=C(OC(=O)c2ccccc2)C(C(=O)OC)[C@]2(O)[C@@H](C(=O)OC)[C@H]1C[C@@H](c1ccccc1)[C@@H]2C(=O)OC (stereo not given in full)	52 µM	30.7 µM	26.7 µM	32.7 µM	> 100 µM	14.6 µM	13.9 µM	41.7 µM	40.1 µM	84.6 µM
O=C1NC(=S)N(c2ccccc2)C1=O	> 100 µM	> 100 µM	> 100 µM	> 100 µM	> 100 µM	> 100 µM	> 100 µM	> 100 µM	> 100 µM	> 100 µM
O=C(/C=C/c1csc(-c2ccccc2)n1)NCc1ccc(C(=O)NCc2ccccc2)cc1	32.8 µM	> 100 µM	> 100 µM	> 100 µM	> 100 µM	> 100 µM	> 100 µM	88.7 µM	> 100 µM	> 100 µM
COc1cc(/C=C(/C#N)C(N)=O)ccc1O	> 100 µM	> 100 µM	> 100 µM	> 100 µM	> 100 µM	> 100 µM	> 100 µM	> 100 µM	> 100 µM	> 100 µM
